The target in one experiment is T1, human mGlu2 (Homo sapiens, UniProt Q14416).
T1 construct: expressed in transfected cells; host or cells: HEK-293 stably co-expressing GIRK channels
In words: mGlu GIRK cell-based thallium flux assay, human mGlu2. To be noted: HEK-293 cells co-expressing human mGlu2 and GIRK, EC80 glutamate, single experiment. The procedure: (§1) Human embryonic kidney (HEK-293) cell lines stably co-expressing human or rat mGlu2 and G protein-coupled inwardly rectifying potassium (GIRK) channels, or human mGlu3 and GIRK, were used for in vitro evaluation of compound activity in thallium flux assay using a fluorescent thallium indicator dye.
(§2) The day before the assay, GIRK cells co-expressing human mGlu3, human or rat mGlu2, as described above, were plated in black-walled, clear-bottomed, amine-coated 384-well plates at a density of 15,000 cells/[…]/well in the assay medium (glutamine-depleted basal DMEM supplemented with 10% dialyzed FBS, 20 mM HEPES, 1 mM sodium pyruvate). Cells were incubated at 37° C. in the presence of 5% CO2. The next day, assay buffer (Hanks balanced salt solution, 20 mM HEPES, 4.16 mM sodium bicarbonate, pH 7.2) was prepared to dilute compounds and Thallos AM fluorescent dye solution. The 2× Thallos dye solution (final concentration 0.34 μM to the cells) was prepared by mixing the dye stock (2.97 mM in DMSO) to 1:1 with 10% pluronic acid before adding to the assay buffer. Cells were washed with assay buffer using a microplate washer to remove the medium, resulting in 20 μL of buffer remaining in each well. […] During the cell dye loading incubation period, a 10-point concentration serial dilution of compound was created from a 10 mM DMSO compound stock by performing a 1:3 serial dilution in DMSO using the Bravo liquid handler. The 2× compound plate was generated by transferring 0.24 μL of the diluted compound in each well to a daughter plate using an Echo acoustic liquid handler. This is further diluted in 40 μL assay buffer, resulting in a range from […] to 1.5 nM final concentration in the assay. The agonist plate (5×) was prepared to include EC80 glutamate concentration (a concentration to elicit 80% of a maximally effective glutamate concentration) in thallium buffer (125 mM sodium bicarbonate, 1 mM magnesium sulfate, 1.8 mM calcium sulfate, 5 mM glucose, 10 mM HEPES, pH 7.2, 12.5 mM thallium sulfate).
(§3) After dye-loading, cell plates were washed with assay buffer to remove excess extracellular dye using a microplate washer, resulting in 20 μL of buffer remaining in each well. After a ten-minute equilibration period, cell, compound and agonist plates were loaded into a Hamamatsu μCell kinetic imaging plate reader equipped with liquid handler to monitor fluorescence changes at 480 nm excitation and 540 nm emission settings. Briefly, after collection of baseline fluorescence, 20 μL of compound was added and incubated for two minutes and twenty seconds. This is immediately followed by adding 10 μL of glutamate-thallium buffer to the wells containing compound. The fluorescent signal was monitored an additional 2.5 minutes after the glutamate addition. Multiple reference wells containing no compound received either no glutamate (for a baseline reference), EC80 glutamate, or ECmax glutamate (for normalization to maximum response). […] Each compound concentration series occurred one time in each plate, and replicates from two or three plates were used in each experimental run. Thallium solutions were handled and disposed of according to guidelines from the Vanderbilt University Chemical Safety department.
(§4) Data were normalized using a static ratio function (F/F0) by dividing every fluorescent measurement by the initial fluorescent value for the corresponding well. The increase in signal resulting from the glutamate/thallium addition of the second add was measured by determining the slope from 3 seconds to 13 seconds after the addition. The average of all baseline slopes (no compound, no glutamate) was determined and this value was subtracted from all other slope values. The average of all ECmax slopes was determined and this value was used to normalize the baseline-corrected slopes to a percent max value (% Emax).

For the next experiment, the target named is T2, human mGlu3 (Homo sapiens, UniProt Q14832).
T2 construct: expressed in transfected cells; host or cells: HEK-293 stably co-expressing GIRK channels
In words: mGlu GIRK cell-based thallium flux assay, human mGlu3. To be noted: HEK-293 cells co-expressing human mGlu3 and GIRK, EC80 glutamate, single experiment. How it is done:
as §1, §2, §3, §4

T2 sequence (Q14832 23-879): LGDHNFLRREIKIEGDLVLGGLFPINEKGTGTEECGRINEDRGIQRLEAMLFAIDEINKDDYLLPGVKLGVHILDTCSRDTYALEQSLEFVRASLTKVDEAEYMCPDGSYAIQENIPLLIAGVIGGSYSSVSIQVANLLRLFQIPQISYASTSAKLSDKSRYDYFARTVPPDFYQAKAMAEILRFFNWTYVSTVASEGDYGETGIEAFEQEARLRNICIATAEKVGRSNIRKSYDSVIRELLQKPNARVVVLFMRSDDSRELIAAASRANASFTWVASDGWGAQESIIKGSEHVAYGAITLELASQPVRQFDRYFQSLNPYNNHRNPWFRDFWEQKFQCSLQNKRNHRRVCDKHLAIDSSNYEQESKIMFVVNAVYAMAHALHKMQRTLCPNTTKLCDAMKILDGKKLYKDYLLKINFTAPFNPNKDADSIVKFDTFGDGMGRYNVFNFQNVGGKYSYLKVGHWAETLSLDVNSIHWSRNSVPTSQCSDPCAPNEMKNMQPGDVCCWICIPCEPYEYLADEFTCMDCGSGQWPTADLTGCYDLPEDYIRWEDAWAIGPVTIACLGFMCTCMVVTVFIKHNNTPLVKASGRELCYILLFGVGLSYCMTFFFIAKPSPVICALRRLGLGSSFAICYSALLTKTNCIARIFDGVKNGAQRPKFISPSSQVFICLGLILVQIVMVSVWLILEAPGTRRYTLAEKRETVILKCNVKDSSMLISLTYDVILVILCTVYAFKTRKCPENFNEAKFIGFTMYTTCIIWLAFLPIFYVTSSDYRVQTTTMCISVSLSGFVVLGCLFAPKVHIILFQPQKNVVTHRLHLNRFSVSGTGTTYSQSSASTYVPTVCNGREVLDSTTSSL
T1 sequence (Q14416 19-872): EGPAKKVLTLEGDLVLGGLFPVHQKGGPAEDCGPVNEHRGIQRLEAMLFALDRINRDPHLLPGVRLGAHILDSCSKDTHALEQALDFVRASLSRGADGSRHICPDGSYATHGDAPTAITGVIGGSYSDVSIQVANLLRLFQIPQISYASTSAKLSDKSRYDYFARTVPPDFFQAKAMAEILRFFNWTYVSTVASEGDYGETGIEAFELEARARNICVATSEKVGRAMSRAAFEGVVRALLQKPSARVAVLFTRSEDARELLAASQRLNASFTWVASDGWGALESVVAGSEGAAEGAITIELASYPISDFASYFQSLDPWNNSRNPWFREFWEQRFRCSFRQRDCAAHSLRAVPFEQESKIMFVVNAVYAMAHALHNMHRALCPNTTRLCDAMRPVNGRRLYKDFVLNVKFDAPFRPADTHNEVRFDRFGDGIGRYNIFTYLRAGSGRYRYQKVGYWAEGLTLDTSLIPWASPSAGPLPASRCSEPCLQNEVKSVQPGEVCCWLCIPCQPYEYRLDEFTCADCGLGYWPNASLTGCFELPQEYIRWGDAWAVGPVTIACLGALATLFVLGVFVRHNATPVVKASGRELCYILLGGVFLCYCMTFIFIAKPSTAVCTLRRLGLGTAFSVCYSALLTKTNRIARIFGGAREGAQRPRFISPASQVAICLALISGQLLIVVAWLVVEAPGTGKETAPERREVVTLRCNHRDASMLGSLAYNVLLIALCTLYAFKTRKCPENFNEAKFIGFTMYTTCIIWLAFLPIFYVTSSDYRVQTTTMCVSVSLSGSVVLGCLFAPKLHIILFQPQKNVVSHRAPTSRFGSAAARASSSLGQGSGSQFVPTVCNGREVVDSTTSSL

`Cc1cc(-c2cc(-c3ccc(F)cc3F)cc3c2CNC3=O)cnn1` [Compound 13, 6-(2,4-difluorophenyl)-4-(6-methylpyridazin-4-yl)isoindolin-1-one] gave an IC50 on human mGlu2 of 163 nM. In addition, the “Human mGlu3 GIRK IC50 (nM)” value on human mGlu3 is on record as “Inactive”. With `O=C1NCc2c1cc(-c1ccc(F)cc1F)cc2-c1ccc2nccn2c1` [Compound 38, 6-(2,4-difluorophenyl)-4-(imidazo[1,2-a]pyridin-6-yl)isoindolin-1-one], the IC50 was determined as 198 nM on human mGlu2 and 6.41 µM against human mGlu3. For `CC(C)Oc1ncccc1-c1cc(-c2ccc(F)cc2F)cc2c1CNC2=O` [Compound 75, 6-(2,4-difluorophenyl)-4-(2-isopropoxypyridin-3-yl)isoindolin-1-one] the same measures were 865 nM and above 10 µM. On human mGlu2, `Cn1cc(-c2cc(-c3ccc(F)cc3F)cc3c2CNC3=O)cn1` [Compound 19, 6-(2,4-difluorophenyl)-4-(1-methyl-1H-pyrazol-4-yl)isoindolin-1-one] had an IC50 of 181 nM. Besides, at human mGlu3, the “Human mGlu3 GIRK IC50 (nM)” value is reported as “Inactive”. Take `CSc1ncc(-c2cc(-c3ccc(F)cc3F)cc3c2CNC3=O)cn1` [Compound 39, 6-(2,4-difluorophenyl)-4-(2-(methylthio)pyrimidin-5-yl)isoindolin-1-one]: the figures for the IC50 on human mGlu2 and against human mGlu3 were 555 nM and 3.96 µM, respectively. Taken in the same sequence, the figures for `O=C1NCc2c(CN3CCOCC3)cc(-c3ccc(F)cc3F)cc21` [Compound B2, 6-(2,4-difluorophenyl)-4-(morpholinomethyl)isoindolin-1-one] were 182 nM and above 10 µM. Taken in the same sequence, the figures for `Cc1nc(F)ccc1-c1cc(-c2ccc(F)cc2F)cc2c1CNC2=O` [Compound 72, 6-(2,4-difluorophenyl)-4-(6-fluoro-2-methylpyridin-3-yl)isoindolin-1-one] were 104 nM and above 10 µM. With `Cc1cc(-c2cc(-c3ccc(F)cc3F)cc3c2CNC3=O)n(C)n1` [Compound 79, 6-(2,4-difluorophenyl)-4-(1,3-dimethyl-1H-pyrazol-5-yl)isoindolin-1-one], at human mGlu3, the IC50 is above 10 µM. On to `CC(C)Oc1cc(-c2cc3c(c(-c4cnsc4)c2)CNC3=O)ccc1C#N` [Compound 62, 2-isopropoxy-4-(7-(isothiazol-4-yl)-3-oxoisoindolin-5-yl)benzonitrile], for which the “Human mGlu2 GIRK IC50 (nM)” value at human mGlu2 is on record as “Inactive”. Moreover, the IC50 against human mGlu3 was above 10 µM. In the case of `CC1(C)CN(c2cc(-c3ccc(F)cc3F)cc3c2CNC3=O)CC(C)(C)O1` [Compound A6, 6-(2,4-difluorophenyl)-4-(2,2,6,6-tetramethylmorpholino)isoindolin-1-one], the IC50 against human mGlu2 is 2090 nM. Also, the “Human mGlu3 GIRK IC50 (nM)” value on human mGlu3 is reported as “Inactive”.

On human mGlu2, `CC(C)n1nccc1-c1cc(C2=CCOCC2)cc2c1CNC2=O` [Compound 86, 6-(3,6-dihydro-2H-pyran-4-yl)-4-(1-isopropyl-1H-pyrazol-5-yl)isoindolin-1-one] yielded an IC50 of 175 nM. For the same molecule, the “Human mGlu3 GIRK IC50 (nM)” value at human mGlu3 was “Inactive”.

For the molecule `CC1(C#N)CCN(c2cc(-c3ccc(F)cc3F)cc3c2CNC3=O)C1` (centres unmarked) [Compound A7, 1-(6-(2,4-difluorophenyl)-1-oxoisoindolin-4-yl)-3-methylpyrrolidine-3-carbonitrile], the IC50 against human mGlu2 was determined as 361 nM. Further, at human mGlu3, the “Human mGlu3 GIRK IC50 (nM)” value was “Inactive”. `O=C1NCc2c1cc(-c1ccc(F)cc1F)cc2-c1ccc(=O)n(C(F)F)c1` [Compound 40, 4-(1-(difluoromethyl)-6-oxo-1,6-dihydropyridin-3-yl)-6-(2,4-difluorophenyl)isoindolin-1-one] registered an IC50 at human mGlu2 of 66 nM. The “Human mGlu3 GIRK IC50 (nM)” value on human mGlu3 is given as “Inactive”. Taken in the same sequence, the figures for `O=C1NCc2c1cc(-c1ccc(F)cc1F)cc2-c1cnn(C2CC2)c1` [Compound 18, 4-(1-cyclopropyl-1H-pyrazol-4-yl)-6-(2,4-difluorophenyl)isoindolin-1-one] were 291 nM and “Inactive”. Turning to `Cn1nc(C(F)(F)F)cc1-c1cc(-c2ccc(F)cc2F)cc2c1CNC2=O` [Compound 78, 6-(2,4-difluorophenyl)-4-(1-methyl-3-(trifluoromethyl)-1H-pyrazol-5-yl)isoindolin-1-one], on human mGlu2, the IC50 came out at 204 nM. Also, the “Human mGlu3 GIRK IC50 (nM)” value at human mGlu3 was “Inactive”.

For `CC(C)n1nccc1-c1cc(-c2ccc(F)cc2F)cc2c1CNC2=O` [Compound 30, 6-(2,4-difluorophenyl)-4-(1-isopropyl-1H-pyrazol-5-yl)isoindolin-1-one], the figures for the IC50 against human mGlu2 and at human mGlu3 were 126 nM and above 10 µM, respectively. For `O=C1NCc2c1cc(-c1ccc(F)cc1F)cc2-c1cccnc1N1CCCC1` [Compound 66, 6-(2,4-difluorophenyl)-4-(2-(pyrrolidin-1-yl)pyridin-3-yl)isoindolin-1-one] the same measures were 528 nM and above 10 µM. Take `CC1(C)CCN(c2cc(-c3ccc(F)cc3F)cc3c2CNC3=O)CC1` [Compound A16, 6-(2,4-difluorophenyl)-4-(4,4-dimethylpiperidin-1-yl)isoindolin-1-one]: the IC50 is 3950 nM on human mGlu2 and above 10 µM against human mGlu3.

With `O=C1NCc2c(CN3CCSCC3)cc(-c3ccc(F)cc3F)cc21` [Compound B1, 6-(2,4-difluorophenyl)-4-(thiomorpholinomethyl)isoindolin-1-one], the IC50 on human mGlu2 was 180 nM; at human mGlu3, 4.62 µM. On to `O=C1NCc2c1cc(-c1ccc(F)cc1F)cc2-c1ccc(F)nc1F` [Compound 73, 6-(2,4-difluorophenyl)-4-(2,6-difluoropyridin-3-yl)isoindolin-1-one], for which the IC50 against human mGlu2 was 157 nM; at human mGlu3, above 10 µM. Consider `O=C1NCc2c1cc(-c1ccc(F)cc1F)cc2-c1cnc2ccccc2c1` [Compound 25, 6-(2,4-difluorophenyl)-4-(quinolin-3-yl)isoindolin-1-one], for which the IC50 against human mGlu2 came out at 3310 nM. `CCOc1ccc(-c2cc3c(c(-c4cnsc4)c2)CNC3=O)c(F)c1F` [Compound 54, 6-(4-ethoxy-2,3-difluorophenyl)-4-(isothiazol-4-yl)isoindolin-1-one] gave an IC50 at human mGlu2 above 10000 nM.

Consider `O=C1NCc2c1cc(-c1ccc(F)cc1F)cc2-c1ccc2ccncc2c1` [Compound 26, 6-(2,4-difluorophenyl)-4-(isoquinolin-7-yl)isoindolin-1-one], for which the concentration for half-maximal inhibition (IC50) on human mGlu2 came out at 2690 nM. Same read-out and setting: next, `O=C1NCc2c1cc(-c1ccc(F)cc1F)cc2-c1ccnc(C(F)(F)F)c1` [Compound 90, 6-(2,4-difluorophenyl)-4-(2-(trifluoromethyl)pyridin-4-yl)isoindolin-1-one]: 303 nM. On to `O=C1NCc2c1cc(-c1ccc(F)cc1F)cc2-c1cnn(C2CCC2)c1` [Compound 17, 4-(1-cyclobutyl-1H-pyrazol-4-yl)-6-(2,4-difluorophenyl)isoindolin-1-one], for which the IC50 at human mGlu2 amounted to 2560 nM. `O=C1NCc2c1cc(-c1ccc(F)cc1F)cc2-c1ccco1` [Compound 29, 6-(2,4-difluorophenyl)-4-(furan-2-yl)isoindolin-1-one]: the “Human mGlu2 GIRK IC50 (nM)” value at human mGlu2 is listed as “Inactive”. For `O=C1NCc2c1cc(-c1ccc(F)cc1F)cc2C1=CCCCO1` [Compound B9, 6-(2,4-difluorophenyl)-4-(3,4-dihydro-2H-pyran-6-yl)isoindolin-1-one], the midpoint of inhibition on human mGlu2, the IC50, lay at 853 nM. Same read-out and setting: to `CC(C)n1nccc1-c1cc(C2CCOCC2)cc2c1CNC2=O` [Compound 88, 4-(1-isopropyl-1H-pyrazol-5-yl)-6-(tetrahydro-2H-pyran-4-yl)isoindolin-1-one] belongs 1700 nM.

One may read the IC50 as the concentration at which inhibition is half-maximal.

Values taken from patent publication US20260226019A1, “NEGATIVE ALLOSTERIC MODULATORS OF METABOTROPIC GLUTAMATE RECEPTOR 2” (Vanderbilt University, priority 2023, published 2026).
